In patent publication US20090227607A1, “DEAZAPURINES USEFUL AS INHIBITORS OF JANUS KINASES” (priority 2006, published 2009) one finds Ki data, which are given here for 43 compounds.

Structures are written as SMILES. Some results are limits rather than exact numbers.

In experiment [1] the target is T1, JAK3 (Homo sapiens, UniProt P52333).
T1 sequence (P52333 1-1124): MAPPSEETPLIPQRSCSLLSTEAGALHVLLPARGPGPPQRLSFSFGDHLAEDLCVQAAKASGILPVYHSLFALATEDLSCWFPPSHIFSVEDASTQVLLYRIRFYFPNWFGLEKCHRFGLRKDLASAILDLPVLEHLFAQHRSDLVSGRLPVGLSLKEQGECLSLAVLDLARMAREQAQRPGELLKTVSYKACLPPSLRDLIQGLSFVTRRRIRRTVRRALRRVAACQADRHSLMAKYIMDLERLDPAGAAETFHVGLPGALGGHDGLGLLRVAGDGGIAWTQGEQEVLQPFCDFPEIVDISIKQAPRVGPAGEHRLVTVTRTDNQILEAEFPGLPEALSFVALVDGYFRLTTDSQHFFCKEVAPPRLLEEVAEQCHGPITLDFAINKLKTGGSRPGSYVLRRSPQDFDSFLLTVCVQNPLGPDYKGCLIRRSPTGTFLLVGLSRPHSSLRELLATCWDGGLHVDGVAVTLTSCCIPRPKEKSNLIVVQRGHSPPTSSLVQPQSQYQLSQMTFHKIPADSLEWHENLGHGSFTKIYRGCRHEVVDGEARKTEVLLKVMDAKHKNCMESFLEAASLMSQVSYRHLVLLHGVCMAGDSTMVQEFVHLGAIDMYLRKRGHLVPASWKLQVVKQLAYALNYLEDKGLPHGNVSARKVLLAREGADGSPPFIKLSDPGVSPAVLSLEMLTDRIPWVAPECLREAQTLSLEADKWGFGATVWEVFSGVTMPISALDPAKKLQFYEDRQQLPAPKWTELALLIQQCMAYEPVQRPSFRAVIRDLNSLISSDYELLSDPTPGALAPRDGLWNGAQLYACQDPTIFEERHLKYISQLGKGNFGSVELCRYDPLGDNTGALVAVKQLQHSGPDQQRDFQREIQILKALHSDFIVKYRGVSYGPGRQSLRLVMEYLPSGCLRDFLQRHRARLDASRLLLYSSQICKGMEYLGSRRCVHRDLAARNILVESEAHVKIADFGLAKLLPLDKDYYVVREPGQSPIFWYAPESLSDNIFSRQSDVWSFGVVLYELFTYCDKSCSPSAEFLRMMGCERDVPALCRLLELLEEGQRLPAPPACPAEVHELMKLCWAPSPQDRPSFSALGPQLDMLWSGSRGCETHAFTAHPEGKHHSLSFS
Description: JAK3 Inhibition Assay. It counts as biochemical. The note with it: 1 μM poly(Glu)4Tyr, 5 μM ATP, 1 nM JAK3, 25° C.; read-out: JAK3 enzyme inhibition data (Ki). As to the method:
(§1) Compounds were screened for their ability to inhibit JAK3 using the assay shown below. Reactions were carried out in a kinase buffer containing 100 mM HEPES (pH 7.4), 1 mM DTT, 10 mM MgCl2, 25 mM NaCl, and 0.01% BSA. Substrate concentrations in the assay were 5 μM ATP (200 uCi/μmole ATP) and 1 μM poly(Glu)4Tyr. Reactions were carried out at 25° C. and 1 nM JAK3.
(§2) To each well of a 96 well polycarbonate plate was added 1.5 μl of a candidate JAK3 inhibitor along with 50 μl of kinase buffer containing 2 μM poly(Glu)4Tyr and […]. This was then mixed and […] of kinase buffer containing 2 nM JAK3 enzyme was added to start the reaction. After 20 minutes at room temperature (25° C.), the reaction was stopped with 50 μl of 20% trichloroacetic acid (TCA) that also contained 0.4 mM ATP. The entire contents of each well were then transferred to a 96 well glass fiber filter plate using a TomTek Cell Harvester. After washing, 60 μl of scintillation fluid was added and ^33P incorporation detected on a Perkin Elmer TopCount.
(§3) Tables 5 and 6 depict enzyme inhibition data (Ki) for certain exemplary compounds. Compound numbers in Tables 5 and 6 correspond to those compounds depicted in Tables 1 and 2, respectively.

The target in experiment [2] is JAK-2 enzyme (Homo sapiens, UniProt O60674). Description: JAK2 Inhibition Assay. In kind it is biochemical. To be noted: 15 μM poly(Glu)4Tyr, 12 μM ATP, 25° C. Here is the method:
as §1, §2
The assays were as described above in Example 36 except that JAK-2 enzyme was used, the final poly(Glu)4Tyr concentration was 15 μM, and final ATP concentration was 12 μM.
as §3

JAK-2 enzyme, sequence (O60674 whole entry, species assumed): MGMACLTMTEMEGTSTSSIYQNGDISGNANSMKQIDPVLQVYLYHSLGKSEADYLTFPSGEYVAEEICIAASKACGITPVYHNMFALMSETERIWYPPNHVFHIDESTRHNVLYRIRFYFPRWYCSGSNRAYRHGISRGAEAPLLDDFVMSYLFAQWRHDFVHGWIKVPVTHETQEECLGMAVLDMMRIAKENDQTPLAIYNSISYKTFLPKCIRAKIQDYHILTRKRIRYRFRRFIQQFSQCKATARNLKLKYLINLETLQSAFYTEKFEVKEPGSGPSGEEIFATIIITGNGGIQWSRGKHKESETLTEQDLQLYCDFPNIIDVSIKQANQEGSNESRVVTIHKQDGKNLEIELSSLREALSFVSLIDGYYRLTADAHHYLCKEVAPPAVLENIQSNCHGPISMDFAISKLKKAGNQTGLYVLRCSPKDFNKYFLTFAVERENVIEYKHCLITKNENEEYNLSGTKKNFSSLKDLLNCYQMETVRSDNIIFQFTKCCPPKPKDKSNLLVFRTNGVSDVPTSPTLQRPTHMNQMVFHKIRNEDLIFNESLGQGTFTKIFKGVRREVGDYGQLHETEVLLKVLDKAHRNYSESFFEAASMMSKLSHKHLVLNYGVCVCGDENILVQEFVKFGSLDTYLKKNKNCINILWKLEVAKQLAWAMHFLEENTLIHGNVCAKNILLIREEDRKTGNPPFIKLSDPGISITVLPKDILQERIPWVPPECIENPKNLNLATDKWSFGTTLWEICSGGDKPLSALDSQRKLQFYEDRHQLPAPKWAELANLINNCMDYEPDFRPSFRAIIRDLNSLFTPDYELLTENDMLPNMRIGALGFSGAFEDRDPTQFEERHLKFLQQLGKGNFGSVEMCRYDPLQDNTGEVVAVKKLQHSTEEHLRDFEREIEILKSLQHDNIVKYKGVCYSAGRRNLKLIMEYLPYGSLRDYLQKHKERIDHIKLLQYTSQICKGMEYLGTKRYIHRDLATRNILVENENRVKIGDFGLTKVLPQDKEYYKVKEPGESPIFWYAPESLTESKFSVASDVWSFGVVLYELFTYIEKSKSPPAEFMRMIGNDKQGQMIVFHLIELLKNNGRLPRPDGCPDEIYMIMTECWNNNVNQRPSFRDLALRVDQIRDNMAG

Turning to `C[C@@H]1CC[C@@H](C)N1C(=O)c1cc(-c2ncnc3[nH]cc(Cl)c23)c[nH]1` [Compound 213], the Ki in experiment [1] and in experiment [2] was < 100 nM throughout. For the compound `O=C1[C@H]2CCCC[C@@H]2C(=O)N1c1nc(-c2ncnc3[nH]ccc23)cs1` [Compound 180], the inhibitory constant (Ki) in experiment [1] and in experiment [2] was 100 to 500 nM each time. With `CC(C)OCCNC(=O)C(C)n1cc(-c2ncnc3[nH]ccc23)cn1` (stereo not drawn) [Compound 85], the Ki in experiment [1] and in experiment [2] was 500 to 5000 nM in each case. With `O=C(c1cc(-c2ncnc3[nH]cc(Cl)c23)c[nH]1)N(CCC(F)(F)F)CC1CC1` [Compound 227], the inhibition constant (Ki) in experiment [1] and in experiment [2] was < 100 nM each time. For the compound `N#CCCN(CC1CCCO1)C(=O)c1cc(-c2ncnc3[nH]ccc23)c[nH]1` (stereo not drawn) [Compound 136], the inhibitory constant (Ki) was 100 to 500 nM in experiment [1] and < 100 nM in experiment [2]. With `CC(C)CN(CCC(F)(F)F)C(=O)c1cc(-c2ncnc3[nH]ccc23)co1` [Compound 252], the inhibitory constant (Ki) in experiment [1] and in experiment [2] was 100 to 500 nM in each case. Take `Cc1c[nH]c2ncnc(-c3c[nH]c(C(=O)N4C(C)C=CC4C)c3)c12` (stereo not drawn) [Compound 204]: the inhibitory constant (Ki) was 100 to 500 nM in experiment [1] and < 100 nM in experiment [2].

In the case of `O=C(c1cc(-c2ncnc3[nH]ccc23)c[nH]1)N1CCCC1CO` (stereo not drawn) [Compound 41], the inhibitory constant (Ki) in experiment [1] is 500 to 5000 nM; in experiment [2], 100 to 500 nM. In the case of `CCC(CC)CNC(=O)c1cc(-c2ncnc3[nH]ccc23)c[nH]1` [Compound 138], the inhibitory constant (Ki) in experiment [1] and in experiment [2] was < 100 nM each time. Regarding `C=CCN(C(=O)c1cc(-c2ncnc3[nH]ccc23)c[nH]1)C(C)c1ccccc1` (stereo not drawn) [Compound 114], the Ki in experiment [1] and in experiment [2] was < 100 nM in each case. As to `C#CCN(C)C(=O)c1cc(-c2ncnc3[nH]ccc23)c[nH]1` [Compound 24], the figures for the inhibition constant Ki in experiment [1] and in experiment [2] were 100 to 500 nM and < 100 nM, respectively.

Consider `N#CCN(Cc1cccc(Cl)c1)C(=O)c1cc(-c2ncnc3[nH]ccc23)c[nH]1` [Compound 113], for which the Ki in experiment [1] and in experiment [2] was < 100 nM in each case. Consider `CCN(Cc1ccccc1)C(=O)c1cc(-c2ncnc3[nH]ccc23)c[nH]1` [Compound 30], for which the inhibition constant Ki in experiment [1] and in experiment [2] was < 100 nM in each case. Regarding `N#CC1CCCN1C(=O)c1cc(-c2ncnc3[nH]ccc23)c[nH]1` (stereo not drawn) [Compound 52], the Ki in experiment [1] is 100 to 500 nM; in experiment [2], < 100 nM. Regarding `CN(CCC#N)C(=O)c1ccc(-c2ncnc3[nH]ccc23)o1` [Compound 119], the inhibitory constant (Ki) in experiment [1] and in experiment [2] was < 100 nM in each case.

Turning to `CN(CC(F)(F)F)C(=O)c1cc(-c2ncnc3[nH]ccc23)c[nH]1` [Compound 55], the inhibitory constant (Ki) is 100 to 500 nM in experiment [1] and < 100 nM in experiment [2]. In the case of `COC(=O)N1CCC(C(=O)Nc2nc(-c3ncnc4[nH]ccc34)cs2)CC1` [Compound 171], the inhibitory constant (Ki) in experiment [1] and in experiment [2] was < 100 nM each time. With `CC(C)CN(CCC(F)(F)F)C(=O)c1ccc(-c2ncnc3[nH]ccc23)o1` [Compound 211], the inhibition constant Ki in experiment [1] and in experiment [2] was < 100 nM each time. Turning to `CCCCN(CC)C(=O)c1cc(-c2ncnc3[nH]ccc23)cn1C` [Compound 232], the Ki in experiment [1] is 100 to 500 nM; in experiment [2] it was < 100 nM. With `COc1ccc(C(=O)Nc2nc(-c3ncnc4[nH]ccc34)cs2)cc1` [Compound 175], the Ki in experiment [1] was 100 to 500 nM; in experiment [2], < 100 nM.

For `O=C(N[C@H](CO)c1cccc(Cl)c1)c1cc(-c2ncnc3[nH]ccc23)c[nH]1` [Compound 1], in experiment [1], the Ki is < 100 nM. For `N#CCCN(CCC(F)(F)F)C(=O)c1cc(-c2ncnc3[nH]ccc23)co1` [Compound 230, N-(2-cyanoethyl)-4-(7H-pyrrolo[2,3-d]pyrimidin-4-yl)-N-(3,3,3-trifluoropropyl)furan-2-carboxamide], the results for the Ki in experiment [1] and in experiment [2] were 100 to 500 nM and < 100 nM, respectively. With `CCN(Cc1ccccc1)C(=O)c1cc(-c2ncnc3[nH]cc(C)c23)c[nH]1` [Compound 202], the figures for the Ki in experiment [1] and in experiment [2] were 100 to 500 nM and < 100 nM, respectively. The like results for `CCCCC(C)n1cc(-c2ncnc3[nH]ccc23)cn1` (stereo not drawn) [Compound 93] were, in that order, < 100 nM and < 100 nM. For `CC(C)CN(CCC#N)C(=O)c1cc(-c2ncnc3[nH]ccc23)c[nH]1` [Compound 187], the inhibitory constant (Ki) in experiment [1] and in experiment [2] was < 100 nM in each case.

On to `CC(C)(C)OC(=O)N1CCCC(C(=O)Nc2nc(-c3ncnc4[nH]ccc34)cs2)C1` (stereo not drawn) [Compound 177], for which the Ki in experiment [1] and in experiment [2] was 100 to 500 nM throughout. Consider `CC(C)CCn1cc(-c2ncnc3[nH]cc(Cl)c23)cn1` [Compound 164], for which the Ki is 100 to 500 nM in experiment [1] and < 100 nM in experiment [2].

Regarding `CC(CO)NC(=O)C(C)n1cc(-c2ncnc3[nH]ccc23)cn1` (stereo not drawn) [Compound 79], the inhibition constant (Ki) in experiment [1] lay in the range of 100 to 500 nM; in experiment [2], 500 to 5000 nM. Take `C=CCN(C(=O)c1cc(-c2ncnc3[nH]ccc23)co1)[C@@H](C)c1ccccc1` [Compound 248]: the Ki in experiment [1] was 100 to 500 nM; in experiment [2] it was < 100 nM. The like results for `CC1CC1C(=O)Nc1nc(-c2ncnc3[nH]ccc23)cs1` (stereo not drawn) [Compound 58] were, in that order, < 100 nM and < 100 nM. Consider `CC(C(=O)OC(C)(C)C)n1cc(-c2ncnc3[nH]ccc23)cn1` (stereo not drawn) [Compound 95], for which, in experiment [2], the inhibition constant (Ki) was 100 to 500 nM. In the case of `CC(C(=O)NCC(F)(F)F)n1cc(-c2ncnc3[nH]ccc23)cn1` (stereo not drawn) [Compound 91], the Ki in experiment [1] and in experiment [2] was < 100 nM each time. `CCN(C(=O)CC(C)C)c1nc(-c2ncnc3[nH]ccc23)cs1` [Compound 104]: the inhibition constant Ki in experiment [1] and in experiment [2] was < 100 nM throughout. As for `CC(C)(C)CC(=O)Nc1nc(-c2ncnc3[nH]ccc23)cs1` [Compound 66], the Ki in experiment [1] and in experiment [2] was < 100 nM in each case. For `CC(C(=O)NCC1CCCO1)n1cc(-c2ncnc3[nH]ccc23)cn1` (stereo not drawn) [Compound 76], the Ki in experiment [1] and in experiment [2] was 500 to 5000 nM each time.

For the compound `C=CCN(C(=O)c1ccc(-c2ncnc3[nH]ccc23)o1)[C@@H](C)c1ccccc1` [Compound 222], the inhibition constant Ki in experiment [1] and in experiment [2] was < 100 nM in each case. Turning to `COC(=O)C1C2C=CC(C2)C1C(=O)Nc1nc(-c2ncnc3[nH]ccc23)cs1` (stereo not drawn) [Compound 155], the figures for the Ki in experiment [1] and in experiment [2] were 100 to 500 nM and < 100 nM, respectively. `FC(F)(F)CCCn1cc(-c2ncnc3[nH]ccc23)cn1` [Compound 6]: the Ki is 100 to 500 nM in experiment [1] and < 100 nM in experiment [2]. Regarding `CCN(CC)C(=O)C(C)n1cc(-c2ncnc3[nH]ccc23)cn1` (stereo not drawn) [Compound 88], the Ki was < 100 nM in experiment [1] and 100 to 500 nM in experiment [2]. `CC(C)(CC(=O)O)CC(=O)Nc1nc(-c2ncnc3[nH]ccc23)cs1` [Compound 145]: the Ki in experiment [1] and in experiment [2] was 100 to 500 nM each time. Turning to `CC[C@@H]1CC[C@@H](CC)N1C(=O)c1cc(-c2ncnc3[nH]ccc23)co1` [Compound 246], the Ki in experiment [1] was 100 to 500 nM; in experiment [2], < 100 nM. For `CCCN(CC1CC1)C(=O)c1cc(-c2ncnc3[nH]ccc23)c[nH]1` [Compound 20], the inhibition constant (Ki) in experiment [1] and in experiment [2] was < 100 nM each time. Consider `O=C(c1ccc(-c2ncnc3[nH]ccc23)o1)N(CC1CC1)CC(F)(F)F` [Compound 120], for which the Ki in experiment [1] and in experiment [2] was < 100 nM each time.
